Source: ChEMBL document CHEMBL1131422, “N-(2-Benzoylphenyl)-L-tyrosine PPARgamma agonists. 1. Discovery of a novel series of potent antihyperglycemic and antihyperlipidemic agents” (J Med Chem, 1998)
Calls of active or inactive are those of the source. The rule behind the calls is not given here.

Assays:
[1] = organism: Mus musculus; experiment: Compound was tested for Antihyperlipidemic activity, activity is expressed as percent reduction of NEFAs; type: functional
[2] = organism: Mus musculus; experiment: Compound was tested for Antihyperlipidemic activity, activity is expressed as percent reduction of Triglycerides; type: functional
[3] = tested on: Mus musculus; experiment: Compound was tested in vivo for Antihyperglycemic activity in mice, activity is expressed as percent reduction of plasma glucose.; type: functional
[4] = target: T1, Peroxisome proliferator-activated receptor alpha (Homo sapiens, UniProt Q07869); experiment: Compound was tested functionally in vitro for inducing 50% of the maximum alkaline phosphatase activity (Transactivation) against human Peroxisome proliferator activated receptor alpha using transfection assay in CV-1 cells; type: functional, cell-based
T1 sequence (Q07869 whole entry): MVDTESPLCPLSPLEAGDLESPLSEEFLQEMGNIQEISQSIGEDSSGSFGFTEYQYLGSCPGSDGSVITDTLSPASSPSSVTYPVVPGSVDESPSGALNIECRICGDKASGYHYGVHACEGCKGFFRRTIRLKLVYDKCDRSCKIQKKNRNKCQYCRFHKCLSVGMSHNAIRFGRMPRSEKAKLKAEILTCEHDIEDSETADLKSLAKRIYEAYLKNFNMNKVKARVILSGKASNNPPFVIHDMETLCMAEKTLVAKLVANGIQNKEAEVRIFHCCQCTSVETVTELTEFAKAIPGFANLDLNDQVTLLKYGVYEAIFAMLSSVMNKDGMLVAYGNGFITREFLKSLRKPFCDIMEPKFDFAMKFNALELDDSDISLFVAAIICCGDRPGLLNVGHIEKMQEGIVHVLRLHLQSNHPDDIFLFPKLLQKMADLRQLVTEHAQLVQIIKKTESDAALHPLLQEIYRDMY

[5] = target: T2, Peroxisome proliferator-activated receptor delta (Mus musculus) (UniProt P35396); experiment: Compound was tested functionally in vitro for inducing 50% of the maximum alkaline phosphatase activity (Transactivation) against murine Peroxisome proliferator activated receptor delta using transfection assay in CV-1 cells; IA = Inactive at 10e-4 M; type: functional, cell-based
T2 sequence (whole entry): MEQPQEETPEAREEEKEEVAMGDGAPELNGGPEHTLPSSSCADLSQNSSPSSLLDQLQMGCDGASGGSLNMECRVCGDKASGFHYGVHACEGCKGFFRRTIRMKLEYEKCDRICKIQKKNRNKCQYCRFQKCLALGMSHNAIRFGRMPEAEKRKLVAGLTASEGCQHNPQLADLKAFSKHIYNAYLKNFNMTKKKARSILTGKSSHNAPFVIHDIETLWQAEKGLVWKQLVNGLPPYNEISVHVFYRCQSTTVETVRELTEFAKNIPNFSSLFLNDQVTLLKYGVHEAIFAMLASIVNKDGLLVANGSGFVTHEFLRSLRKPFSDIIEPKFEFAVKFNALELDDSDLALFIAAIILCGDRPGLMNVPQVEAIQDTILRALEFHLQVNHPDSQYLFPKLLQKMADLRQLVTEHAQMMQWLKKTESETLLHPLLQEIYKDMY

[6] = target: T3, Peroxisome proliferator-activated receptor alpha (Homo sapiens) (UniProt Q07869); experiment: The compound was tested in vitro for inhibiting the 50% binding of Peroxisome proliferator activated receptor alpha
T3 sequence (whole entry): T1 sequence (Q07869 whole entry)

[7] = target: T4, Peroxisome proliferator-activated receptor alpha (Mus musculus) (UniProt P23204); experiment: Compound was tested functionally in vitro for inducing 50% of the maximum alkaline phosphatase activity (Transactivation) against murine Peroxisome proliferator activated receptor alpha using transfection assay in CV-1 cells; IA = Inactive at 10e-4 M; type: functional, cell-based
T4 sequence (whole entry): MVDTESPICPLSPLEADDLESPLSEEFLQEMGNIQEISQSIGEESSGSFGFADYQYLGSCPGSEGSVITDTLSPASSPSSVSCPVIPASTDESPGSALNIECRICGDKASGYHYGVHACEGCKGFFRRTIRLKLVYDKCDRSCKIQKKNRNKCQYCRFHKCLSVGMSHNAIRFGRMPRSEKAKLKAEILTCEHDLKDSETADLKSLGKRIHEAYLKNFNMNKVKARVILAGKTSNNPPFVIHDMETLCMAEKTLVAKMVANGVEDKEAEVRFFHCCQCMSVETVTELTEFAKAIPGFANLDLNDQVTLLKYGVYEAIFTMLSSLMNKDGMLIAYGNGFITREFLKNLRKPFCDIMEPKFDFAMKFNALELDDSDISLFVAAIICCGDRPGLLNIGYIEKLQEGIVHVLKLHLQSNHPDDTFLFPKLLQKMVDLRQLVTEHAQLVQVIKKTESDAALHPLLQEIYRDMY

[8] = target: T5, Peroxisome proliferator-activated receptor gamma (Mus musculus, UniProt P37238); experiment: Compound was tested functionally in vitro for inducing 50% of the maximum alkaline phosphatase activity (Transactivation) against murine Peroxisome proliferator activated receptor gamma using transfection assay in CV-1 cells; type: functional, cell-based
T5 sequence (P37238 whole entry): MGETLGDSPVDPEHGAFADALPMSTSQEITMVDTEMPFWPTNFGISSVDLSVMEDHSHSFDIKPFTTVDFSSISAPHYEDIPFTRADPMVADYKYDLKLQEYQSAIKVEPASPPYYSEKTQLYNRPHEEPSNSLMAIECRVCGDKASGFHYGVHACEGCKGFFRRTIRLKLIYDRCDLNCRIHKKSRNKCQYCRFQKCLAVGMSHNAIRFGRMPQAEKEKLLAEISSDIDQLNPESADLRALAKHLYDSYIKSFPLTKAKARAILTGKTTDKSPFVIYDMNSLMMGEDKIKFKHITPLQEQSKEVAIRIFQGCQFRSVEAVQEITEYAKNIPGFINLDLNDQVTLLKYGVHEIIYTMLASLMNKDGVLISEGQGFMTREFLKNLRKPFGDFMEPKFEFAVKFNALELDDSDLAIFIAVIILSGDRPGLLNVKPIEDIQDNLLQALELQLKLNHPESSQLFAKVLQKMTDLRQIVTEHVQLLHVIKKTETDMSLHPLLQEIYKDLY

[9] = target: T6, Peroxisome proliferator-activated receptor gamma (Homo sapiens, UniProt P37231)
T6 sequence (P37231 whole entry): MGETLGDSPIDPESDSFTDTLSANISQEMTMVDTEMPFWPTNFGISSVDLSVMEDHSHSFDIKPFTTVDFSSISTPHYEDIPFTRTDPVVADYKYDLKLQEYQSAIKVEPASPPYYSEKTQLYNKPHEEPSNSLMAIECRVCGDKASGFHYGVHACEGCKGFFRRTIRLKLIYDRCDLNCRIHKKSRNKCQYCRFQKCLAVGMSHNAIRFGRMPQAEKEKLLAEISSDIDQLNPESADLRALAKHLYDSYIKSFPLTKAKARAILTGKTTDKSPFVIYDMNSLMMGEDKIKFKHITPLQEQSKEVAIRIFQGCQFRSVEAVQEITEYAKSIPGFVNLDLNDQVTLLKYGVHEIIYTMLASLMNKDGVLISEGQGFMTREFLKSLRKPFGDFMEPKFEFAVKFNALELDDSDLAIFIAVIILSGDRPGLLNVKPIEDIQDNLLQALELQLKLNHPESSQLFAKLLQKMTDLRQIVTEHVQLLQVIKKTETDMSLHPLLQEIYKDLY
Description: (§1) Activation of peroxisome proliferator activated receptor gamma measured by induction of 50% of maximum alkaline phosphatase activity, transfection assay in CV-1 cells

[10] = target: T6, Peroxisome proliferator-activated receptor gamma; remark: listed apart in the source
Description: In vitro binding to peroxisome proliferator activated receptor gamma (PPAR gamma) using [3H]-BRL 49653 as radioligand in scintillation proximity assay (SPA)

[11] = target: T7, Peroxisome proliferator-activated receptor delta (Homo sapiens) (UniProt Q03181); conditions: CV-1; 10e-4 M
T7 sequence (whole entry): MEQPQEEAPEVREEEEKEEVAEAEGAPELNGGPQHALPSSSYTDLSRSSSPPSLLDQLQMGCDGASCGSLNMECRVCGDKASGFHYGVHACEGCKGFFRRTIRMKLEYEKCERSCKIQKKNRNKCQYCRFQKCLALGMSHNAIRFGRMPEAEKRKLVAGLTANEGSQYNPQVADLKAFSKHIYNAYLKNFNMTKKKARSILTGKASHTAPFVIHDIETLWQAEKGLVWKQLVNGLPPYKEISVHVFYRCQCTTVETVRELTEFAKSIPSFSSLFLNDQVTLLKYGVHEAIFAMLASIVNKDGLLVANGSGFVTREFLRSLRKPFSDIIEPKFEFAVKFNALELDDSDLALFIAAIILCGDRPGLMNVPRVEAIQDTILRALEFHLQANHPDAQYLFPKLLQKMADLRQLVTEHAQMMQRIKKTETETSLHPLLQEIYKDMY
Description: Compound was tested functionally in vitro for inducing 50% of the maximum alkaline phosphatase activity (Transactivation) against human Peroxisome proliferator activated receptor delta using transfection assay in CV-1 cells; IA = Inactive at 10e-4 M

[12] = target: T6, Peroxisome proliferator-activated receptor gamma; conditions: cv-1
Description: as §1

[13] = target: T8, Peroxisome proliferator-activated receptor gamma (Homo sapiens) (UniProt P37231)
T8 sequence (whole entry): T6 sequence (P37231 whole entry)
Description: Tested for its ability to bind to Peroxisome proliferator activated receptor gamma using [3H]-BRL 49653 as radioligand in scintillation proximity assay (SPA)

[14] = organism: Mus musculus; experiment: Compound was tested for Antihyperlipidemic activity, activity is expressed as percent increase of body weight
[15] = organism: Rattus norvegicus; experiment: The compound was tested for Antihyperlipidemic activity in Zucker Diabetic fatty rats, activity is expressed as percent reduction of NEFAs; type: functional
[16] = organism: Rattus norvegicus; experiment: The compound was tested for Antihyperlipidemic activity in Zucker Diabetic fatty rats, activity is expressed as percent reduction of Triglycerides; type: functional
[17] = tested on: Rattus norvegicus; experiment: The compound was tested in vivo for Antihyperglycemic activity in Zucker Diabetic fatty rats, activity is expressed as percent reduction of HbA1C.; type: functional
[18] = tested on: Rattus norvegicus; experiment: The compound was tested in vivo for Antihyperglycemic activity in Zucker Diabetic fatty rats, activity is expressed as percent reduction of plasma glucose; type: functional
[19] = tested on: Rattus norvegicus; experiment: Compound was tested in vivo for Antihyperglycemic activity in Zucker Diabetic fatty rats, activity is expressed as percent reduction of plasma glucose; type: functional
[20] = organism: Rattus norvegicus; experiment: Compound was tested for Antihyperlipidemic activity in Zucker Diabetic fatty rats, activity is expressed as percent reduction of NEFAs; type: functional
[21] = organism: Rattus norvegicus; experiment: Compound was tested for Antihyperlipidemic activity in Zucker Diabetic fatty rats, activity is expressed as percent reduction of Triglycerides; type: functional
[22] = tested on: Rattus norvegicus; experiment: Compound was tested in vivo for Antihyperglycemic activity in Zucker Diabetic fatty rats, activity is expressed as percent reduction of HbA1C.; type: functional
[23] = target: T3, Peroxisome proliferator-activated receptor alpha (Homo sapiens); conditions: CV-1; 10e-4 M
[24] = target: T8, Peroxisome proliferator-activated receptor gamma (Homo sapiens); conditions: 10e-4 M
Description: Compound was tested for its ability to promote differentiation of C3H10T1/2 stem cells to adipocytes using lipogenesis assay mediated through activation of Peroxisome proliferator activated receptor gamma; IA = Inactive at 10e-4 M

SMILES | Reduction [1] | Reduction [2] | Reduction [3] | Log EC50 [5] | Log EC50 [7] | EC50 [8] | EC50 [9] | Ki [10] | Log EC50 [11] | body weight increase % [14] | Reduction [19] | Reduction [20] | Reduction [21] | Reduction [22] | also measured
CN(CCOc1ccc(C[C@H](Nc2ccccc2C(=O)c2ccccc2)C(=O)O)cc1)c1nc2ccccc2o1 | 38% | 36% | 41% | inactive | inactive | 4.68 nM | 2.63 nM | 1.48 nM | inactive | 9% |  |  |  |  | EC50 [4]: 6460 nM; pKi [6]: 5.92; Log EC50 [12]: -8.58; Log Ki [13]: 8.83 µM
Cc1c(C)c2c(c(C)c1O)CCC(C)(COc1ccc(CC3SC(=O)NC3=O)cc1)O2 (stereo not given) [TROGLITAZONE] |  |  |  |  |  |  |  |  |  |  |  |  |  |  | Reduction [15]: 81%; Reduction [16]: 87%; Reduction [17]: 29%; Reduction [18]: 61%
Cc1oc(-c2ccccc2)nc1CCOc1ccc(C[C@H](Nc2ccccc2C(=O)c2ccccc2)C(=O)O)cc1 [FARGLITAZAR] | 56% | 54% | 65% | inactive | inactive |  |  |  | inactive | 17% | 65% | 75% | 77% | 33% | 
CN(CCOc1ccc(C[C@H](Nc2ccccc2C(=O)c2ccccc2)C(=O)O)cc1)c1ccccn1 (stereo in doubt; 18) | 46% | 61% | 58% | inactive | inactive | 13.2 nM |  |  | inactive | 6% | 68% | 73% | 87% | 37% | Log EC50 [23]: inactive
CN(CCOc1ccc(CC(Nc2cccc3c2C(=O)c2ccccc2C3=O)C(=O)O)cc1)c1nc2ccccc2o1 (stereo not given) |  |  |  |  |  |  | 5.01 nM | 5.13 nM |  |  |  |  |  |  | Log EC50 [24]: inactive
